Where two headings read alike, the source gives them in different places.
Tests used:
human ADAMTS4 = human ADAMTS4 (Homo sapiens (Human), UniProt O75173); test: hADAMTS-4 TBIS-1 cleavage assay, Protocol 2; assay type: biochemical
rnADAMTS-5 (1-564-6H) = rnADAMTS-5 (1-564-6H) (Rattus norvegicus (Rat), UniProt Q6TY19); test: Rat ADAMTS-5 TBIS-1 cleavage assay; assay type: biochemical; conditions: 120 min at 37° C.; read-out: Rat ADAMTS-5 potency IC50
human ADAMTS-5 = human ADAMTS-5 (Homo sapiens (Human), UniProt Q9UNA0); test: hADAMTS-5 TBIS-1 cleavage assay, Protocol 3; assay type: biochemical; conditions: 90 min at 37° C., read-out: hADAMTS-5 potency IC50
human ADAMTS-5, sequence (Q9UNA0 262-930): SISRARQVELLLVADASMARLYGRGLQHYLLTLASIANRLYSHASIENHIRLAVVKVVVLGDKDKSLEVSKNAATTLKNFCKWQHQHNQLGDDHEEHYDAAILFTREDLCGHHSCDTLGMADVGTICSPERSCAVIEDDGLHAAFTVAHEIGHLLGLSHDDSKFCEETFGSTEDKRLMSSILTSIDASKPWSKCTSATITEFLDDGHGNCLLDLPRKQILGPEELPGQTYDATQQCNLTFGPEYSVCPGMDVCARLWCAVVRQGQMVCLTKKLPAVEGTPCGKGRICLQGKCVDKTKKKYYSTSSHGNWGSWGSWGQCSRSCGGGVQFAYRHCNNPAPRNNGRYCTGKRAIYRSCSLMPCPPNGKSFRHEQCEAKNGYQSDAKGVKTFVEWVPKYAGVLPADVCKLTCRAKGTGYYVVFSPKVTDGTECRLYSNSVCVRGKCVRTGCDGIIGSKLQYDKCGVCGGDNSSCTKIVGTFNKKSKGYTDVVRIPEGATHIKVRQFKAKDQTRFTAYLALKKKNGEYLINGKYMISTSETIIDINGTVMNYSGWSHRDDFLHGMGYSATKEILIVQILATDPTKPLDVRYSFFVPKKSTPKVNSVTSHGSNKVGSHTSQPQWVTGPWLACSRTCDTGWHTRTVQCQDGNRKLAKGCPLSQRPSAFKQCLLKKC
Method: The reaction is initiated by adding to the assay plate TBIS-1 (10 μL, 4.5 μM, Anaspec) in the same buffer.
Finally, the fluorescence is read on the Envision (Perkin Elmer) after an incubation of 90 min at 37° C. (Excitation 485 nm, emission 530).

human ADAMTS6 = human ADAMTS6 (Homo sapiens (Human), UniProt Q9UKP5); test: hADAMTS-6 fluorescent based protease assay (520 MMP FRET substrate XII); assay type: biochemical; conditions: 37° C. for 2 h; read-out: hADAMTS-6 potency IC50
human ADAMTS6, sequence (Q9UKP5 other isoform, or with tags, fused parts or gaps): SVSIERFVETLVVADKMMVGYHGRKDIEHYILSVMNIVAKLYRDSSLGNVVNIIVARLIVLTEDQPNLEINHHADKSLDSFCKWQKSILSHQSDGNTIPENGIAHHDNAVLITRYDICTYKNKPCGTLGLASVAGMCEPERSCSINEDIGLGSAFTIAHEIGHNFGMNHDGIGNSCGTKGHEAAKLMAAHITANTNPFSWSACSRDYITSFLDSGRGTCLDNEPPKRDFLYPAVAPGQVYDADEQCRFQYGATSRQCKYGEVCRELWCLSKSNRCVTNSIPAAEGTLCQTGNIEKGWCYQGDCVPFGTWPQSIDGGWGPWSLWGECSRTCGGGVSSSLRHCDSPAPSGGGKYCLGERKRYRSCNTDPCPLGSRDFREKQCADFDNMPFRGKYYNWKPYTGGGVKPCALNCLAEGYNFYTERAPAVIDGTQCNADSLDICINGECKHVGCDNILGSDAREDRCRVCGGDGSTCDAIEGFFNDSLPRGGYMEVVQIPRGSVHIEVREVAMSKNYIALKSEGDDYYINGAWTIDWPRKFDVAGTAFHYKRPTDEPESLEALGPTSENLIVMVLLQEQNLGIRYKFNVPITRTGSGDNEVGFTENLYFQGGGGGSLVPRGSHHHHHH
Outline: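 ADAMTS6 (0.73 nM final) in 25 mM Tris pH 8.0, 0.05% CHAPS, 2.5 mM CaCl2 with compound dilution series (top 20 μM, 1/5 steps). Reaction started with 520 MMP FRET Substrate XII, incubated 2 h at 37 °C. Substrate cleavage read by fluorescence ex485/em530; IC50 determined.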

human MMP13 = human MMP13 (Homo sapiens (Human), UniProt P45452); test: hMMP13 assay, Protocol 1 (390 MMP FRET Substrate I, Chemicon enzyme); assay type: biochemical; conditions: Protocol 1, human MMP13 (Chemicon), read-out: hMMP-13 potency IC50
Method: Human MMP13 is preactivated by incubated the enzyme in the same buffer complemented with 1 mM freshly prepared p-Aminophenylmercuric acetate (AMPA) for 1 h at 37° C.

human TACE = human TACE (Homo sapiens (Human), UniProt P78536); test: biochemical
human TACE, sequence (P78536 215-671): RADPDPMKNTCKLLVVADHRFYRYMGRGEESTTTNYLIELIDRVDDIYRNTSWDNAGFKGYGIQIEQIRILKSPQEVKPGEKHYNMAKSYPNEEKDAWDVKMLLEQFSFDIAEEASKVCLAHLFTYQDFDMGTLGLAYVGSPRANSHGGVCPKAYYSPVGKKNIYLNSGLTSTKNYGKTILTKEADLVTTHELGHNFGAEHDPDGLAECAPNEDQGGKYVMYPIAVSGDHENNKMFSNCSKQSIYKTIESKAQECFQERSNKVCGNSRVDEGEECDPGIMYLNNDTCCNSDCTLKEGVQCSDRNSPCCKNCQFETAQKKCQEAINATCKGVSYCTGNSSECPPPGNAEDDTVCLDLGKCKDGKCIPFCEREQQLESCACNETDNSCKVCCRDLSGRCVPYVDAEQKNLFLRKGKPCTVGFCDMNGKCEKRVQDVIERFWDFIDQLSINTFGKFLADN
Method: Finally, the fluorescence is read on the Envision (Perkin Elmer) after an incubation of 75 min at room temperature (Excitation 485 nm, Emission 530).

[1] = Protocol 2, 180 min at 37° C., read-out: ADAMTS4 potency IC50

rnADAMTS-5 (1-564-6H), sequence (Q6TY19 entry or part of it): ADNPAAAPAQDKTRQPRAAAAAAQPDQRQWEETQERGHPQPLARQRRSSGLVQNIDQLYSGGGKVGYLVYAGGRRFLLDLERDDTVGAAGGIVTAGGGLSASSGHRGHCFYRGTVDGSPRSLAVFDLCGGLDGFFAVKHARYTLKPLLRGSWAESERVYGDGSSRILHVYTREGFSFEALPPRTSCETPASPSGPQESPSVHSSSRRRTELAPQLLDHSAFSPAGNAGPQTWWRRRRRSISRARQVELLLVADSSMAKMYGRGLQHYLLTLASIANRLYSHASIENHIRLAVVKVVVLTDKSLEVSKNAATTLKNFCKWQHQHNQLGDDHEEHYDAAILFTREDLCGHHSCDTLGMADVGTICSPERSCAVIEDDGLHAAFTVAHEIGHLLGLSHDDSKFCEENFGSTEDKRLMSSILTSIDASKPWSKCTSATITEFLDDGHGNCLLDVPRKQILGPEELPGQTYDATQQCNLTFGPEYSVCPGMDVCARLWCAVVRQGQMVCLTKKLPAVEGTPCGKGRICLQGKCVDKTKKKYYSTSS
human ADAMTS4, sequence (O75173 213-837): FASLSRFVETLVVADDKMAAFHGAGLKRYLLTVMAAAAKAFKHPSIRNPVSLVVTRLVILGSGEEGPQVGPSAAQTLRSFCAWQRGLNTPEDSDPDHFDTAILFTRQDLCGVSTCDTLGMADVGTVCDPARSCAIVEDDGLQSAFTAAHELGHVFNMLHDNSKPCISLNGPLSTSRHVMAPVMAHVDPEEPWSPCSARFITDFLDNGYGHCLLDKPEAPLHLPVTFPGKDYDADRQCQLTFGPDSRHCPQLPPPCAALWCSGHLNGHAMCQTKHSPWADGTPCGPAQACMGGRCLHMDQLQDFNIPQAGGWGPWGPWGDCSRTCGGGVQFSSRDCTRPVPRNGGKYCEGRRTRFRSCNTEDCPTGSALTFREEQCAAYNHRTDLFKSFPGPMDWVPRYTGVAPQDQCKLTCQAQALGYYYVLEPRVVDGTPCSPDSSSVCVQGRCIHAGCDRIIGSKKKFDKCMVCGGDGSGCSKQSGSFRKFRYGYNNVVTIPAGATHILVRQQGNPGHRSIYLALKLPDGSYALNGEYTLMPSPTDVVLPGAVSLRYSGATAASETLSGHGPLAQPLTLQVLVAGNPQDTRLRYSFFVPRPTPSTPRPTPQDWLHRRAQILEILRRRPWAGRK

Compound: COc1cc(N2CCN(C(=O)CC[C@H]3NC(=O)NC3=O)C[C@@H]2C)c(C)cc1Cl [Cpd 142, (5R)-5-[3-[(3S)-4-(4-chloro-5-methoxy-2-methyl-phenyl)-3-methyl-piperazin-1-yl]-3-oxo-propyl]imidazolidine-2,4-dione]
- IC50 (human ADAMTS4; [1]): > 100 nM
- IC50 (rnADAMTS-5 (1-564-6H)): > 100 nM
- IC50 (human ADAMTS-5): > 100 nM
- IC50 (human ADAMTS6): 50 to 100 nM
- IC50 (human MMP13): > 100 nM
- IC50 (human TACE): > 100 nM

Compound: COc1cc(N2CCN(C(=O)CCC3(C)NC(=O)NC3=O)CC2)c(C)cc1Cl (stereo not drawn) [Cpd 34, 5-[3-[4-(4-chloro-5-methoxy-2-methyl-phenyl)piperazin-1-yl]-3-oxo-propyl]-5-methyl-imidazolidine-2,4-dione]
- IC50 (human ADAMTS4; [1]): > 100 nM
- IC50 (rnADAMTS-5 (1-564-6H)): > 100 nM
- IC50 (human ADAMTS-5): > 100 nM
- IC50 (human ADAMTS6): 25 to 50 nM
- IC50 (human MMP13): > 100 nM
- IC50 (human TACE): > 100 nM

Compound: COc1cc(F)cc(N2CCN(C(=O)[C@H](C)C[C@@]3(C4CC4)NC(=O)NC3=O)CC2)c1 (stereo in doubt) [Cpd 130, 5-cyclopropyl-5-[3-[4-(3-fluoro-5-methoxy-phenyl)piperazin-1-yl]-2-methyl-3-oxo-propyl]imidazolidine-2,4-dione]
- IC50 (rnADAMTS-5 (1-564-6H)): > 100 nM
- IC50 (human ADAMTS-5): > 100 nM
- IC50 (human ADAMTS6): > 100 nM

Compound: COc1cc(N2CCN(C(=O)[C@@H](C)C[C@@]3(C4CC4)NC(=O)NC3=O)C[C@@H]2C)cc(F)c1F [Cpd 29, 5-cyclopropyl-5-[(2S)-3-[(3S)-4-(3,4-difluoro-5-methoxy-phenyl)-3-methyl-piperazin-1-yl]-2-methyl-3-oxo-propyl]imidazolidine-2,4-dione]
- IC50 (human ADAMTS4): 25 to 50 nM
- IC50 (rnADAMTS-5 (1-564-6H)): 25 to 50 nM
- IC50 (human ADAMTS-5): 25 to 50 nM
- IC50 (human ADAMTS6): 0.001 to 25 nM
- IC50 (human MMP13): > 100 nM
- IC50 (human TACE): > 100 nM

Compound: COc1cc(N2CCN(C(=O)CCC3(C)NC(=O)NC3=O)CC2)cc(OC)c1Cl (stereo not drawn) [Cpd 31, 5-[3-[4-(4-chloro-3,5-dimethoxy-phenyl)piperazin-1-yl]-3-oxo-propyl]-5-methyl-imidazolidine-2,4-dione]
- IC50 (human ADAMTS4; [1]): > 100 nM
- IC50 (rnADAMTS-5 (1-564-6H)): > 100 nM
- IC50 (human ADAMTS-5): > 100 nM
- IC50 (human ADAMTS6): 0.001 to 25 nM
- IC50 (human MMP13): > 100 nM
- IC50 (human TACE): > 100 nM

Compound: COc1cc(N2CCN(C(=O)[C@@H](C)C[C@@]3(C)NC(=O)NC3=O)CC2)cc(OC)c1Cl (stereo in doubt) [Cpd 40, 5-[3-[4-(4-chloro-3,5-dimethoxy-phenyl)piperazin-1-yl]-2-methyl-3-oxo-propyl]-5-methyl-imidazolidine-2,4-dione]
- IC50 (human ADAMTS4): 25 to 50 nM
- IC50 (rnADAMTS-5 (1-564-6H)): > 100 nM
- IC50 (human ADAMTS-5): 50 to 100 nM
- IC50 (human ADAMTS6): 0.001 to 25 nM
- IC50 (human MMP13): > 100 nM
- IC50 (human TACE): > 100 nM

Compound: COc1cc(N2CCN(C(=O)CC[C@H]3NC(=O)NC3=O)C[C@@H]2C)ccc1Cl [Cpd 133, (5R)-5-[3-[(3 S)-4-(4-chloro-3-methoxy-phenyl)-3-methyl-piperazin-1-yl]-3-oxo-propyl]imidazolidine-2,4-dione]
- IC50 (human ADAMTS4; [1]): > 100 nM
- IC50 (rnADAMTS-5 (1-564-6H)): > 100 nM
- IC50 (human ADAMTS-5): > 100 nM
- IC50 (human ADAMTS6): 0.001 to 25 nM
- IC50 (human MMP13): > 100 nM
- IC50 (human TACE): > 100 nM

Compound: COc1cc(OC)cc(N2CCN(C(=O)CCC3(C)NC(=O)NC3=O)C[C@@H]2C)c1 (stereo partly drawn) [Cpd 25, 5-[3-[(3 S)-4-(3,5-dimethoxyphenyl)-3-methyl-piperazin-1-yl]-3-oxo-propyl]-5-methyl-imidazolidine-2,4-dione]
- IC50 (human ADAMTS4; [1]): > 100 nM
- IC50 (rnADAMTS-5 (1-564-6H)): > 100 nM
- IC50 (human ADAMTS-5): > 100 nM
- IC50 (human ADAMTS6): 25 to 50 nM
- IC50 (human MMP13): > 100 nM
- IC50 (human TACE): > 100 nM

Compound: COc1cc(N2CCN(C(=O)CCC3(c4cccnc4)NC(=O)NC3=O)CC2)cc(F)c1F (stereo not drawn) [Cpd 28, 5-[3-[4-(3,4-difluoro-5-methoxy-phenyl)piperazin-1-yl]-3-oxo-propyl]-5-(3-pyridyl)imidazolidine-2,4-dione]
- IC50 (human ADAMTS4; [1]): > 100 nM
- IC50 (rnADAMTS-5 (1-564-6H)): 50 to 100 nM
- IC50 (human ADAMTS-5): > 100 nM
- IC50 (human ADAMTS6): 25 to 50 nM
- IC50 (human MMP13): > 100 nM
- IC50 (human TACE): > 100 nM

Compound: COc1cc(F)cc(N2CCN(C(=O)CCC3(c4cccnc4)NC(=O)NC3=O)CC2)c1 (stereo not drawn) [Cpd 23, 5-[3-[4-(3-fluoro-5-methoxy-phenyl)piperazin-1-yl]-3-oxo-propyl]-5-(3-pyridyl)imidazolidine-2,4-dione]
- IC50 (human ADAMTS4): 50 to 100 nM
- IC50 (rnADAMTS-5 (1-564-6H)): 50 to 100 nM
- IC50 (human ADAMTS-5): 50 to 100 nM
- IC50 (human ADAMTS6): 25 to 50 nM
- IC50 (human MMP13): > 100 nM
- IC50 (human TACE): > 100 nM

Compound: COc1cc(N2CCN(C(=O)CCC3(C)NC(=O)NC3=O)C[C@@H]2C)cc(OC)c1Cl (stereo partly drawn) [Cpd 30, 5-[3-[(3 S)-4-(4-chloro-3,5-dimethoxy-phenyl)-3-methyl-piperazin-1-yl]-3-oxo-propyl]-5-methyl-imidazolidine-2,4-dione]
- IC50 (human ADAMTS4; [1]): > 100 nM
- IC50 (rnADAMTS-5 (1-564-6H)): > 100 nM
- IC50 (human ADAMTS-5): > 100 nM
- IC50 (human ADAMTS6): 0.001 to 25 nM
- IC50 (human MMP13): > 100 nM
- IC50 (human TACE): > 100 nM

Reference: US10829478B2, “5-[3-[piperazin-1-yl]-3-oxo-propyl]-imidazolidine-2,4-dione derivatives as ADAMTS 4 and 5 inhibitors for treating e.g. osteoarthritis” (Galapagos NV, priority 2016, dated 2020)
